Test results reported in patent US7772187B2, “Substances directed against a specific sequence essential for heparanase catalytic activity and uses thereof as heparanase inhibitors” (Hadasit Medical Research Services and Development Company, …, priority 2004, dated 2010).

Columns and labels:
[1] = test system: heparanase processing; assay: Heparanase processing in heparanase-transfected cells (immunoblot with antibody #1453); assay type: cell-based, human
Method: Total cell lysates were immunoblotted with anti-heparanase antibody #1453.
Total cell lysates were then analyzed for heparanase processing by immunoblotting as above.
Total cell lysates were analyzed by immunoblotting as above.
Cell extracts were prepared using a lysis buffer containing 50 mM Tris-HCl, pH 7.4, 150 mM NaCl, 0.5% Triton X-100, supplemented with a cocktail of protease inhibitors (Roche, Indianapolis, Ind.). Protein concentration was determined (Bradford reagent, BioRad, Hercules, Calif.) and 30 μg protein was resolved by SDS-PAGE under reducing conditions using 10% gels. After electrophoresis, proteins were transferred to PVDF membrane (BioRad) and probed with the appropriate antibody followed by HRP-conjugated secondary antibody (Jackson ImmunoResearch, West Grove, Pa.) and an enhanced chemiluminescent substrate (Pierce).

[2] = test system: heparanase processing
Excerpt: In order to further rule out the plasma membrane as the heparanase processing site, heparanase was targeted to the cell membrane by introducing the PDGF-R transmembrane domain at the heparanase C-terminus.

[3] = test system: heparanase processing; conditions: U87 glioma cells pre-treated with 100 μM for 2 hours
Method: The latent 65 kDa heparanase protein was then added for the indicated time points and total cell lysates were analyzed for heparanase processing by immunoblotting as above.
Cells were then fixed and immunostained with anti heparanase monoclonal antibody (BD, upper panel) and anti heparanase (733, second panel) antibodies. Merge images are shown at the third panel.
For uptake studies, the 65 kDa heparanase precursor was added to confluent cell cultures at a concentration of 1 μg/ml under serum-free conditions. At the indicated time points, the medium was aspirated, cells were washed twice with ice-cold PBS and total cell lysates were prepared as described. Heparanase uptake and processing were analyzed by immunoblotting with antibody #1453.

[4] = biological target: T1, heparanase (Homo sapiens, UniProt Q9Y251); assay: Heparanase activity assay, purified/recombinant active heparanase on 35S-labeled ECM; assay type: biochemical; conditions: recombinant active heparanase 40 ng, 2 h, pH 7, 10 μg or 25 μg peptide, dose dependent, versus scrambled peptide
T1 construct: a heterodimer composed of the 8 kDa polypeptide non-covalently associated with the 50 kDa heparanase subunit; ImClone Systems Inc. (gift of Dr Miao, not purchased)
T1 sequence (Q9Y251 158-543 limits assumed): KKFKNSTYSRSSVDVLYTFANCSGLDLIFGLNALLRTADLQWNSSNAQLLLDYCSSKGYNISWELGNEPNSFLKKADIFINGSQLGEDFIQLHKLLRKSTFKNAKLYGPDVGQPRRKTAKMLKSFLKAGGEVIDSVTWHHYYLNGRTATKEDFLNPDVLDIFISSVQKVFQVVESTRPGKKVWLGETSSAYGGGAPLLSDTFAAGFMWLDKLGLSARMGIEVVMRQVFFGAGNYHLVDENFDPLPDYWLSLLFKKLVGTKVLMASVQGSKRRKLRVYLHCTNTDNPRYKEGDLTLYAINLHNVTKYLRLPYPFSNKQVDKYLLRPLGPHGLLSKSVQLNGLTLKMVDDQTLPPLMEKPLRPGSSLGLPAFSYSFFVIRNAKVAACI
T1 sequence (Q9Y251 36-109 partner limits assumed): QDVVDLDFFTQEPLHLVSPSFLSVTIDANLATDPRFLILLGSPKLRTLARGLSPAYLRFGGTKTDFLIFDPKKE
Method: FIG. 6A. Purified, active heparanase (20 ng) was added to 1 ml RPMI medium and incubated with affinity-purified antibody #733 (10 μg, ▴), or rabbit IgG (♦) for 1 hour on ice, followed by 1 hour incubation with ^35S-labeled ECM. Heparanase activity was determined as described in ‘Experimental procedures’.
A Purified, recombinant active heparanase (40 ng) was incubated (2 h, pH 7) with 10 μg (▴) or 25 μg (▪) of a peptide containing the amino acid sequence of residues 158 to 171, or with a control, scrambled, peptide (♦). Note a dose-responsive inhibition of heparanase activity upon treatment with the 158-171 peptide.
Preparation of ECM-coated dishes and determination of heparanase activity were performed as described in detail elsewhere [Vlodavsky, I. Current protocols in Cell Biology Vol. 1 pp. 10.14.11-10.14.14, John Wiley & Sons, New York (1999b); Goldshmidt, O. et al., J. Biol. Chem. 276, 29178-29187 (2001); Goldshmidt (2002) ibid.]. […]
To further investigate the importance of this sequence in heparanase catalytic activity, competition experiments were next performed. In these experiments, recombinant active heparanase (40 ng) was incubated (2 h, pH 7) with different concentrations of a peptide containing the amino acid sequence of residues 158 to 171, or with a control scrambled peptide (Scr), and enzymatic activity was determined. […]

[5] = biological target: T2, heparanase (Homo sapiens, UniProt Q9Y251); conditions: literature (Miao 1999; Parish 1999; Vlodavsky 1994); cited from earlier work
T2 sequence (Q9Y251 36-543): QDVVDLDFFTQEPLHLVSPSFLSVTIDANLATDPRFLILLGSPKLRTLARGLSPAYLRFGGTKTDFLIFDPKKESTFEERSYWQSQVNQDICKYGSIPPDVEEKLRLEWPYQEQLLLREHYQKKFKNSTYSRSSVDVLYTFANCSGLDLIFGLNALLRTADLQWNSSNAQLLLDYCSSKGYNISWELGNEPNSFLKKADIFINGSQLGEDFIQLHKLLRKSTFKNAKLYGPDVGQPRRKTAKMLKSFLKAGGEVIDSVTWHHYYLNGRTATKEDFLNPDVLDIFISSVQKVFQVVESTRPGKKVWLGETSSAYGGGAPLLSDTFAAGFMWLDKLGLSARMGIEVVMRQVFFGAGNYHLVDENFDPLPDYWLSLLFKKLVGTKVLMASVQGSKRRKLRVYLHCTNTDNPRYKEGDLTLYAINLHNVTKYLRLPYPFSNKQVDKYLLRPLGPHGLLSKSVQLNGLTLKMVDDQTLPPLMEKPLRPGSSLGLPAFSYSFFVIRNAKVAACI

CO/C1=C\C(C)=C\[C@@H](C)[C@@H](O)[C@@H](C)C/C(C)=C/C=C/[C@H](OC)[C@@H]([C@@H](C)[C@@H](O)[C@H](C)[C@@]2(O)C[C@@H](O)[C@H](C)[C@@H](C(C)C)O2)OC1=O [bafilomycin A1]
inhibition of heparanase processing ([1]; heparanase-transfected C6 glioma and NMU cells, indicated concentration (nM), 20 hours): complete inhibition | concentration that completely inhibited heparanase processing ([1]; transfected C6 glioma and NMU cells, 20 hours): ≤ 250 nM

CCN(CC)CCCC(C)Nc1ccnc2cc(Cl)ccc12 (stereo not shown) [chloroquine]
inhibition of processing of membrane-targeted heparanase [2]: completely abolished | reversibility of the inhibition of heparanase processing ([1]; heparanase-transfected C6 glioma cells, 50 μM 20 hours, then 24 hours chase in chloroquine-free medium): reversible | inhibition of heparanase processing ([1]; heparanase-transfected HEK-293, MDA-435, C6 and NMU cells, increasing concentrations, 20 hours, dose dependent): completely inhibited | inhibition of processing of exogenously-added heparanase [3]: completely inhibited

KKFKNSTYSRSSVD (listed as Homo sapiens) [synthetic peptide of residues Lys158-Asp171 of human heparanase]
inhibition of heparanase enzymatic activity [4]: significantly inhibited | inhibition of heparanase enzymatic activity ([4]; listed as Synthetic Peptide Comprising Amino Acid Residues 158 to 171 of Heparanase): Completely Blocks

PI-88
inhibition of heparanase activity [5]: inhibit heparanase activity

laminaran sulfate
inhibition of heparanase activity [5]: inhibit heparanase activity
